Test results reported in PMC10303271, “Synthesis and Receptor Binding Studies of α5 GABAAR Selective Novel Imidazodiazepines Targeted for Psychiatric and Cognitive Disorders” (Molecules, 2023).
Where two headings read alike, the source gives them in different places.

Key:
5-HT1E = target: T1, 5-HT1E (Homo sapiens, UniProt P28566); experiment: PDSP primary binding 5-HT1E; settings: primary binding, 10,000 nM; last figure of the line = mean of the 4 before it
T1 construct: purchased NIMH Psychoactive Drug Screening Program (PDSP)
Protocol: (§1) To determine if any off-target receptor-binding effects are present, all the novel ligands were sent to the National Institute of Mental Health (NIMH), Psychoactive Drug Screening Program (PDSP). The ligands were screened over a panel of 47 receptors, ion channels, and transporters to determine any other possible interactions with […]. The hERG-binding was also determined. […] No binding of the test compounds to calcium channels was observed. […] It is necessary to screen the compounds for hERG-binding during the early process of drug discovery. The unintentional binding of many drugs to hERG can cause blockade of hERG K+ channels in the heart, which can cause many side effects including cardiac arrhythmias and sudden death. […] All of the α5 imidazodiazepines were tested for hERG-binding.
(§2) The NIMH PDSP assay protocol book [https://kidbdev.med.unc.edu/databases/PDSP%20Protocols%20II%202013-03-28.pdf accessed on 23 April 2023]. describes the protocols for primary and secondary radio-ligand binding assays. These assays were carried out in a final volume of 125 µL per well in the appropriate binding buffer.
(§3) The binding of a ligand to a receptor, ion channel, or transporter was determined in the […] of 10 µM of the appropriate reference compound. […] Plates were incubated in the dark for 90 min at rt, and the reactions were stopped by vacuum filtration onto 0.3% polyethyleneimine (PEI) soaked 96-well filter mats using a 96-well Filtermateharvester. This was followed by three washes with cold PBS buffer. Radioactivity was then counted on a Microbeta counter. Nonlinear regression was used to analyze the data with N = 6 replicates.

hERG K+ channel = target: T2, hERG K+ channel (Homo sapiens, UniProt Q12809); experiment: PDSP radioligand binding at hERG; settings: human; at 10,000 nM; N = 5; read-out: Binding Affinity at hERG % Inhibition (Primary Binding)
T2 construct: purchased NIMH Psychoactive Drug Screening Program (PDSP)
How it was run: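 Filter-binding format: plates incubated 90 min at rt in the dark, then harvested onto 0.3% PEI-treated mats and washed three times with cold PBS before radioactivity counting. Nonspecific binding measured with 10 µM of the appropriate reference compound; data fitted by nonlinear regression (N = 6).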

DOR = target: T3, DOR (Homo sapiens, UniProt P41143); experiment: PDSP radioligand binding at DOR
T3 construct: purchased NIMH Psychoactive Drug Screening Program (PDSP)
Text: (§4) Opioid receptors are a family of inhibitory G-coupled protein receptors where opioids act as the ligand. The kappa opioid receptors (KOR), µ and δ opioid receptors (MOR and DOR), and nociception opioid receptor (NOP) fall under the family of opioids receptors. It has been reported that oxadiazole imidazodiazepines can mediate analgesic and anti-inflammatory properties mediated also by the κ opioid receptor (KOR). The binding at KOR is usually silent. The affinities of the test compounds for KOR, DOR, and MOR were determined using radioligand binding assays at a screening concentration of 10,000 nM in collaboration with the National Institute of Mental Health’s Psychoactive Drug Screening Program (PDSP), as mentioned before. Concentration-dependent experiments were conducted to determine Ki values for the compounds that exceeded more than 50% radioligand displacement in primary binding assays.
as §2, §3

AMPA = experiment: PDSP primary binding AMPA; settings: primary binding, 10,000 nM; last figure of the line = mean of the 4 before it
Protocol: as §1, §2, §3

GABAA = experiment: PDSP primary binding GABAA; settings: primary binding, 10,000 nM; last figure of the line = mean of the 4 before it; some tables list it twice
Protocol: as §1, §2, §3

Alpha2A = target: T4, Alpha2A (Homo sapiens, UniProt P08913); experiment: PDSP primary binding Alpha2A; settings: 1.5 h; primary binding, 10,000 nM; last figure of the line = mean of the 4 before it; read-out: Alpha2A, PDSP raw data, mean
T4 construct: purchased NIMH Psychoactive Drug Screening Program (PDSP)
T4 sequence (P08913 1-465): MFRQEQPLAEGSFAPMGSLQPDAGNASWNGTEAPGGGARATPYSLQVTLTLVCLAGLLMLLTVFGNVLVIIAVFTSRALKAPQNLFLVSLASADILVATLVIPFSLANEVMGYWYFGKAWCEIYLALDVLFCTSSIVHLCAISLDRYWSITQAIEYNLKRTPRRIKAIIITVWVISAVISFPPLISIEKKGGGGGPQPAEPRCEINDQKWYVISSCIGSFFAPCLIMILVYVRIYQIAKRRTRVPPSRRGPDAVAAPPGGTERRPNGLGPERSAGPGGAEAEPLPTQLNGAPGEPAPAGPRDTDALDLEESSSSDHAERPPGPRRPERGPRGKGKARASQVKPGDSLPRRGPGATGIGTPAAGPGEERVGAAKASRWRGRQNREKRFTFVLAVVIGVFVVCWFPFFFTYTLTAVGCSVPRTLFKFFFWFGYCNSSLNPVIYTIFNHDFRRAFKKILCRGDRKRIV
Protocol: as §1, §2, §3

[1] = target: kappa opioid receptors (KOR) (Homo sapiens, UniProt P41145); experiment: PDSP radioligand binding at KOR; settings: for inhibition at 10 µM: 1.5 h
Text: as §4, §2, §3

5-HT2C = target: T5, 5-HT2C (Homo sapiens, UniProt P28335); experiment: PDSP primary binding 5-HT2C; settings: 1.5 h; primary binding, 10,000 nM; last figure of the line = mean of the 4 before it; read-out: 5-HT2C, PDSP raw data, mean
T5 construct: purchased NIMH Psychoactive Drug Screening Program (PDSP)
T5 sequence (P28335 33-458): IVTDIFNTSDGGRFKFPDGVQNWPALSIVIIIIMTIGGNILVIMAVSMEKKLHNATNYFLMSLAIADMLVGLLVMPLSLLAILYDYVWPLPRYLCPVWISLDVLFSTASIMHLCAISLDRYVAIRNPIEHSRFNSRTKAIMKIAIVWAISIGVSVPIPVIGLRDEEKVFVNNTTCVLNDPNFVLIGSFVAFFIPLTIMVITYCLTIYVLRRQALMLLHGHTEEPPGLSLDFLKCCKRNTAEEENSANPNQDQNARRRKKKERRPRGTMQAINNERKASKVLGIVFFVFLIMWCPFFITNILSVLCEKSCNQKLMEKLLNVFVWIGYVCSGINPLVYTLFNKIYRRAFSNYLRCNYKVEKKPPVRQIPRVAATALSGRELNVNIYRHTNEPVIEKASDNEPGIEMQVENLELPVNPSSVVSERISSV
Protocol: as §1, §2, §3

Kainate (Rat Brain) = experiment: PDSP primary binding Kainate (Rat Brain); settings: primary binding, 10,000 nM; last figure of the line = mean of the 4 before it
Protocol: as §1, §2, §3

M3D = target: T6, M3D (Homo sapiens, UniProt P20309, A239G/Y149C); experiment: PDSP primary binding M3D; settings: primary binding, 10,000 nM; last figure of the line = mean of the 4 before it; read-out: M3D, PDSP raw data, mean
T6 construct: purchased NIMH Psychoactive Drug Screening Program (PDSP)
Protocol: as §1, §2, §3

Alpha7 = experiment: PDSP primary binding Alpha7; settings: primary binding, 10,000 nM; last figure of the line = mean of the 4 before it
Protocol: as §1, §2, §3

5-HT7A = target: T7, 5-HT7A (Homo sapiens, UniProt P34969); experiment: PDSP primary binding 5-HT7A; settings: 1.5 h; primary binding, 10,000 nM; last figure of the line = mean of the 4 before it; read-out: 5-HT7A, PDSP raw data, mean
T7 construct: purchased NIMH Psychoactive Drug Screening Program (PDSP)
Protocol: as §1, §2, §3

[2] = at 10,000 nM, N = 5, [3H]-DADLE 2.69 nM, read-out: Primary Binding %DOR
[3] = primary binding, 10,000 nM, last figure of the line = mean of the 4 before it, read-out: DOR, PDSP raw data, mean
[4] = at 10,000 nM, N = 5, [3H]-U69593 0.83 nM, read-out: Primary Binding %KOR
[5] = primary binding, 10,000 nM, last figure of the line = mean of the 4 before it, read-out: KOR, PDSP raw data, mean

T3 sequence (P41143 whole entry): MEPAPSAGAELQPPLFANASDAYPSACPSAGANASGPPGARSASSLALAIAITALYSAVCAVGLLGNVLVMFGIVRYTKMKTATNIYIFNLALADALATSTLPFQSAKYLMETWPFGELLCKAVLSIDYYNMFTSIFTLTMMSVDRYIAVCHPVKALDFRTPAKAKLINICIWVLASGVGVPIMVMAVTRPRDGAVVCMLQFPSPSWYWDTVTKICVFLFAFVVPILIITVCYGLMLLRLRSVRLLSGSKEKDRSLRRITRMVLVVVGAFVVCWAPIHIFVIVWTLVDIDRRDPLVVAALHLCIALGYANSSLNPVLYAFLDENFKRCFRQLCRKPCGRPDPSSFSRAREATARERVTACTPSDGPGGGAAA
T6 sequence (P20309 whole entry Y149C/A239G): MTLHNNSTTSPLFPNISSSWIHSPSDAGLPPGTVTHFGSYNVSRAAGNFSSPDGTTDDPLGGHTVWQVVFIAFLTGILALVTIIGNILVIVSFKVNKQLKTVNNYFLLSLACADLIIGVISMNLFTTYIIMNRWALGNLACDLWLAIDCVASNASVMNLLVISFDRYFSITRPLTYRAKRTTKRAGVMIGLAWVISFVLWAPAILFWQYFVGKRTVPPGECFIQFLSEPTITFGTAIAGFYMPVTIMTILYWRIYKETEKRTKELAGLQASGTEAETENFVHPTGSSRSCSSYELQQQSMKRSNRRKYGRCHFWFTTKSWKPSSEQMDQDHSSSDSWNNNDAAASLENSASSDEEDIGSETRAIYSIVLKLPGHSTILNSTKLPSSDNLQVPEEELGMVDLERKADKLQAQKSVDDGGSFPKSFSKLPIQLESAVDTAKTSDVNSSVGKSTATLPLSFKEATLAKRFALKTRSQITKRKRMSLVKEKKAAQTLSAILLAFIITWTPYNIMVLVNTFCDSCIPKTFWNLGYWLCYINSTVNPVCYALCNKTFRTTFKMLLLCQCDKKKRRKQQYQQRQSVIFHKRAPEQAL
Sequence of kappa opioid receptors (KOR) (P41145 whole entry): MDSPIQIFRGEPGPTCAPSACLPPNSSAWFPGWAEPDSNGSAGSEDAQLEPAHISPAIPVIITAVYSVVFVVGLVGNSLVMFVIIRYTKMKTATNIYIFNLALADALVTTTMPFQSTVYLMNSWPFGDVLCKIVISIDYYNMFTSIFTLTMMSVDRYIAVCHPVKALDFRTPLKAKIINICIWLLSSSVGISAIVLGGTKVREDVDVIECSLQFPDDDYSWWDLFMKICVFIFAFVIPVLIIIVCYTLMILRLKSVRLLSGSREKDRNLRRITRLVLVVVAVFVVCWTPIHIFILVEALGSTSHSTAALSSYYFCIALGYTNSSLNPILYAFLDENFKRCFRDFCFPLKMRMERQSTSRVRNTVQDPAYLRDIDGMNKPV
T1 sequence (P28566 whole entry): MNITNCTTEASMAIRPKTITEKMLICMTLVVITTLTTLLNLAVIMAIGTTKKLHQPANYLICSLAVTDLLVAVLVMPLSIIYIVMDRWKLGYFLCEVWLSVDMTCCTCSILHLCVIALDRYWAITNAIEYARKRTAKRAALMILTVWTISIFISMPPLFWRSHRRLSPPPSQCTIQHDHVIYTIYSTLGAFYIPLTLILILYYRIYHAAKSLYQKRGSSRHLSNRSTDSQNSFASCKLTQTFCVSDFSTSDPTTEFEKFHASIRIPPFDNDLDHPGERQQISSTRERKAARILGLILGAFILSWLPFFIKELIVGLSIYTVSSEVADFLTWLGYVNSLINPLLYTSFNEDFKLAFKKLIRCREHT
T2 sequence (Q12809 whole entry): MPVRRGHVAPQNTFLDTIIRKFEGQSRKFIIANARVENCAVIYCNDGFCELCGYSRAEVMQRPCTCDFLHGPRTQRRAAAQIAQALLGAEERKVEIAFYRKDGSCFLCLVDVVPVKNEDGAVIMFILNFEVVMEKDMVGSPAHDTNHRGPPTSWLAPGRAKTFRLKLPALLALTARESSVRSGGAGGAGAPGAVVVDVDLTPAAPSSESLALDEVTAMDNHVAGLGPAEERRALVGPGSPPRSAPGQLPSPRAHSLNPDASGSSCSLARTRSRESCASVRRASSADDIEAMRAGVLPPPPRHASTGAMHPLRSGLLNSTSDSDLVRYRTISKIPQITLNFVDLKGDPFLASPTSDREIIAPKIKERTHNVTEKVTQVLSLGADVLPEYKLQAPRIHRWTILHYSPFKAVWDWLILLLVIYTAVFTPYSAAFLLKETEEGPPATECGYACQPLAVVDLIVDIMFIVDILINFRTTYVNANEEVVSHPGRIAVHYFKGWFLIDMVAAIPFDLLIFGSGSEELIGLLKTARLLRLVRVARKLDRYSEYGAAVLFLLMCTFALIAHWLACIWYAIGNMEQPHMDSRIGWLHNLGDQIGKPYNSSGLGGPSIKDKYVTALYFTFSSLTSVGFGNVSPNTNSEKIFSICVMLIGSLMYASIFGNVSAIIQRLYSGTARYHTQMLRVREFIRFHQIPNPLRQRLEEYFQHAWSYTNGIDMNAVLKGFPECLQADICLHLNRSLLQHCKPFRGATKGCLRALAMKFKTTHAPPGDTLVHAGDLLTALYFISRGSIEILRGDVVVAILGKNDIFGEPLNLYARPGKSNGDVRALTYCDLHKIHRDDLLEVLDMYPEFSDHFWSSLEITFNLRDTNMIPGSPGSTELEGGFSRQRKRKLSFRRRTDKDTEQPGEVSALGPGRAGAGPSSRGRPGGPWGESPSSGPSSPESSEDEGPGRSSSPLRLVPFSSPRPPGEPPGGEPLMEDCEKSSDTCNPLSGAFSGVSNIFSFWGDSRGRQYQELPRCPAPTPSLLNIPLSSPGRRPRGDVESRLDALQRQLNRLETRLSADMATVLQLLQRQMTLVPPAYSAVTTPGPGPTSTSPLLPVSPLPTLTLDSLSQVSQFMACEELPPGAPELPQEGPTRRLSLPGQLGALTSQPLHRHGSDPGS
T7 sequence (P34969 1-445 isoform P34969-2): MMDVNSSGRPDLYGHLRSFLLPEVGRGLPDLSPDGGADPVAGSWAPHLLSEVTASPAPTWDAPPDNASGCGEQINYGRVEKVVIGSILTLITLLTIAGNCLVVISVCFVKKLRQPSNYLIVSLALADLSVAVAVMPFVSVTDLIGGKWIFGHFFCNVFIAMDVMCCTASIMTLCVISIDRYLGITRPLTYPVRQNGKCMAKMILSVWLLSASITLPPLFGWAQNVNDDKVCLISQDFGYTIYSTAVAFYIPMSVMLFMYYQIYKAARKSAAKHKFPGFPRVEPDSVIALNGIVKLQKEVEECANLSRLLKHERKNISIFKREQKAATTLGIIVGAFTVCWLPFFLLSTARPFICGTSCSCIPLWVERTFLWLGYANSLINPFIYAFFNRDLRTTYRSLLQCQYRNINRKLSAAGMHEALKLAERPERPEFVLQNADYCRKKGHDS

SMILES | 5-HT1E, PDSP raw data, mean (5-HT1E) [%] | inhibition at 90 min, 10000 nM (hERG K+ channel) [%] | inhibition at 10 µM (DOR; [2]) [%] | inhibition at 10 µM (DOR; [3]) [%] | AMPA, PDSP raw data, mean (AMPA) [%] | GABAA, PDSP raw data, mean (GABAA) [%] | inhibition at 10 µM (Alpha2A) [%] | inhibition at 10 µM [1, 4] [%] | inhibition at 10 µM [1, 5] [%] | inhibition at 10 µM (5-HT2C) [%] | Kainate (Rat Brain), PDSP raw data, mean (Kainate (Rat Brain)) [%] | inhibition at 10 µM (M3D) [%] | Alpha7, PDSP raw data, mean (Alpha7) [%] | inhibition at 10 µM (5-HT7A) [%] | Ki [1] [nM]
C#Cc1ccc2c(c1)C(c1ccccn1)=N[C@@H](C)c1c(C(=O)N(C)C)ncn1-2 [Compound 31, (S)-8-Ethynyl-N,N,4-trimethyl-6-(pyridin-2′-yl)-4H-benzo[f]imidazo[1,5-a][1,4]diazepine-3-carboxamide] | 18.14 | 0.95 ± 2.21 | 6.18 ± 11.2 | 6.18 | -10.56 | 9.39 | -7.15 | -3.79 ± 4.99 | -3.79 | -12.3 | 23.99 | 6.59 | -3.44 | -9.64 | –
C#Cc1ccc2c(c1)C(c1ccccc1F)=N[C@H](C)c1c(C(=S)N(C)C)ncn1-2 [Compound 33, (R)-8-Ethynyl-6-(2′-fluorophenyl)-N,N,4-trimethyl-4H-benzo[f]imidazo[1,5-a][1,4]diazepine-3-carbothioamide] | 34.07 | -4.4 ± 4.52 | 13.2 ± 7.83 | 43 | 7.77 | -4.01 | 5.99 | 53.6 ± 7.24 | 53.6 | 18 | 3.43 | 4.84 | -18.33 | 4.31 | 400 ± 82
CCc1noc(-c2ncn3c2[C@@H](C)N=C(c2ccccc2F)c2cc(-c4ccccc4)ccc2-3)n1 [Compound 35, (R)-3-Ethyl-5-(6-(2′-fluorophenyl)-4-methyl-8-phenyl-4H-benzo[f]imidazo[1,5-a][1,4]diazepin-3-yl)-1,2,4-oxadiazole] | 5.88 | 37.3 ± 5.97 | 52.7 ± 4.38 | 52.7 | -5.68 | 16.02 | 34.5 | 38 ± 1.73 | 38 | 19.7 | 33.32 | 4.49 | -23.18 | 8.12 | –
CCc1noc(-c2ncn3c2CN=C(c2ccccc2F)c2cc(C4CC4)ccc2-3)n1 [Compound 44, 5-(8-Cyclopropyl-6-(2′-fluorophenyl)-4H-benzo[f]imidazo[1,5-a][1,4]diazepin-3-yl)-3-ethyl-1,2,4-oxadiazole] | 11.75 | 33.2 ± 12.6 | 81.3 ± 4.76 | 81.3 | -9.33 | 11.92 | 14.4 | 96.3 ± 2.29 | 96.3 | 24.7 | 42.42 | 11.8 | -24.22 | 9.22 | 207 ± 33.1
CCc1noc(-c2ncn3c2[C@@H](C)N=C(c2ccccc2F)c2cc(C4CC4)ccc2-3)n1 [Compound 46, (R)-5-(8-Cyclopropyl-6-(2′-fluorophenyl)-4-methyl-4H-benzo[f]imidazo[1,5-a][1,4]diazepin-3-yl)-3-ethyl-1,2,4-oxadiazole] | -18.76 | 4.34 ± 3.92 | – | 67.3 | 0.81 | 19.52 | 29.2 | – | 91.3 | 3.53 | 38.21 | 9.97 | 4.57 | 4.98 | –
